Laboratory results: PubChem BioAssay AID1963840 (Molecular Pharmacology Branch, DTP, NCI, 2024)

Test system: 695427-040-R-J1-PDC complex spheroid viability
Assay: Anticancer human tumor 695427-040-R-J1-PDC patient-derived colon adenocarcinoma cell line growth inhibition [POLQ]
Settings: for IC50: curve of first compound; for viability, T/C: stronger effect = lower value
In short: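 PDC + HUVEC + MSC complex spheroids; POLQ inhibitors ± partner drugs; top conc. at/near clinical Cmax, else 10 microM (SN-38 1 microM), half-log dilutions; 37 degrees C, 5% CO2.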

[1] = second compound 0.0316 µM, first compound 0.00316 µM
[2] = second compound 0.0316 µM, first compound 0.01 µM
[3] = second compound 0.0316 µM, first compound 0.0316 µM
[4] = second compound 0.0316 µM, first compound 0.1 µM
[5] = second compound 0.1 µM, first compound 0.00316 µM
[6] = second compound 0.1 µM, first compound 0.01 µM
[7] = second compound 0.1 µM, first compound 0.0316 µM
[8] = second compound 0.1 µM, first compound 0.1 µM
[9] = second compound 0.316 µM, first compound 0.00316 µM
[10] = second compound 0.316 µM, first compound 0.01 µM
[11] = second compound 0.316 µM, first compound 0.0316 µM
[12] = second compound 0.316 µM, first compound 0.1 µM
[13] = second compound 1 µM, first compound 0.00316 µM
[14] = second compound 1 µM, first compound 0.01 µM
[15] = second compound 1 µM, first compound 0.0316 µM
[16] = second compound 1 µM, first compound 0.1 µM
[17] = second compound 3.16 µM, first compound 0.00316 µM
[18] = second compound 3.16 µM, first compound 0.01 µM
[19] = second compound 3.16 µM, first compound 0.0316 µM
[20] = second compound 3.16 µM, first compound 0.1 µM
[21] = second compound 10 µM, first compound 0.00316 µM
[22] = second compound 10 µM, first compound 0.01 µM
[23] = second compound 10 µM, first compound 0.0316 µM
[24] = second compound 10 µM, first compound 0.1 µM
[25] = second compound 0.0316 µM, first compound 0.316 µM
[26] = second compound 0.0316 µM, first compound 1 µM
[27] = second compound 0.1 µM, first compound 0.316 µM
[28] = second compound 0.1 µM, first compound 1 µM
[29] = second compound 0.316 µM, first compound 0.316 µM
[30] = second compound 0.316 µM, first compound 1 µM
[31] = second compound 1 µM, first compound 0.316 µM
[32] = second compound 1 µM, first compound 1 µM
[33] = second compound 3.16 µM, first compound 0.316 µM
[34] = second compound 3.16 µM, first compound 1 µM
[35] = second compound 10 µM, first compound 0.316 µM
[36] = second compound 10 µM, first compound 1 µM
[37] = second compound 0.0316 µM, first compound 3.16 µM
[38] = second compound 0.0316 µM, first compound 10 µM
[39] = second compound 0.1 µM, first compound 3.16 µM
[40] = second compound 0.1 µM, first compound 10 µM
[41] = second compound 0.316 µM, first compound 3.16 µM
[42] = second compound 0.316 µM, first compound 10 µM
[43] = second compound 1 µM, first compound 3.16 µM
[44] = second compound 1 µM, first compound 10 µM
[45] = second compound 3.16 µM, first compound 3.16 µM
[46] = second compound 3.16 µM, first compound 10 µM
[47] = second compound 10 µM, first compound 3.16 µM
[48] = second compound 10 µM, first compound 10 µM
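Also: spheroids exposed to compounds for seven days.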
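For viability, T/C in this document: 100% = DMSO vehicle control viability.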

For `CC[C@@]1(O)C(=O)OCc2c1cc1n(c2=O)Cc2cc3c(CN(C)C)c(O)ccc3nc2-1` + COC1C(OC(N)=O)C(O)C(Oc2ccc3c(O)c(NC(=O)c4ccc(O)c(CC=C(C)C)c4)c(=O)oc3c2C)OC1(C)C, the IC50 (second compound 0.0316 µM) was greater than 100 nM, the IC50 (second compound 0.1 µM) was greater than 100 nM and the IC50 (second compound 0.316 µM) was greater than 100 nM. It also gave an IC50 (second compound 1 µM) greater than 100 nM, an IC50 (second compound 3.16 µM) greater than 100 nM and an IC50 (second compound 10 µM) greater than 100 nM. The viability, T/C (second compound 0.0316 µM, first compound 0.000316 µM) was 103%, the viability, T/C (second compound 0.0316 µM, first compound 0.001 µM) was 96.8% and the viability, T/C [1] was 97.8%. The viability, T/C [2] was 103%, the viability, T/C [3] was 100% and the viability, T/C [4] was 95.1%. It also gave a viability, T/C (second compound 0.1 µM, first compound 0.000316 µM) of 116%, a viability, T/C (second compound 0.1 µM, first compound 0.001 µM) of 104% and a viability, T/C [5] of 101%. The viability, T/C [6] was 102%, the viability, T/C [7] was 104% and the viability, T/C [8] was 99.5%. It also gave a viability, T/C (second compound 0.316 µM, first compound 0.000316 µM) of 102%, a viability, T/C (second compound 0.316 µM, first compound 0.001 µM) of 102% and a viability, T/C [9] of 106%. It also gave a viability, T/C [10] of 104%, a viability, T/C [11] of 105% and a viability, T/C [12] of 92.4%. It also gave a viability, T/C (second compound 1 µM, first compound 0.000316 µM) of 108%, a viability, T/C (second compound 1 µM, first compound 0.001 µM) of 102% and a viability, T/C [13] of 99.6%. The viability, T/C [14] was 98.1%, the viability, T/C [15] was 106% and the viability, T/C [16] was 93.1%. For the same compound, the viability, T/C (second compound 3.16 µM, first compound 0.000316 µM) was 97.2%, the viability, T/C (second compound 3.16 µM, first compound 0.001 µM) was 101% and the viability, T/C [17] was 103%. It also gave a viability, T/C [18] of 97.2%, a viability, T/C [19] of 105% and a viability, T/C [20] of 86%. The viability, T/C (second compound 10 µM, first compound 0.000316 µM) was 107%, the viability, T/C (second compound 10 µM, first compound 0.001 µM) was 103% and the viability, T/C [21] was 105%. The viability, T/C [22] was 106%, the viability, T/C [23] was 105% and the viability, T/C [24] was 93%.
With `CCc1c2c(nc3ccc(O)cc13)-c1cc3c(c(=O)n1C2)COC(=O)[C@]3(O)CC` + COC1C(OC(N)=O)C(O)C(Oc2ccc3c(O)c(NC(=O)c4ccc(O)c(CC=C(C)C)c4)c(=O)oc3c2C)OC1(C)C the IC50 (second compound 0.0316 µM) was 976 nM, the IC50 (second compound 0.1 µM) was 893 nM and the IC50 (second compound 0.316 µM) was greater than 1000 nM. It also gave an IC50 (second compound 1 µM) of 985 nM, an IC50 (second compound 3.16 µM) of 809 nM and an IC50 (second compound 10 µM) of 656 nM. The viability, T/C [1] was 97.5%, the viability, T/C [2] was 89% and the viability, T/C [3] was 82.6%. It also gave a viability, T/C [4] of 78.9%, a viability, T/C [25] of 68.2% and a viability, T/C [26] of 48.1%. For the same compound, the viability, T/C [5] was 102%, the viability, T/C [6] was 91.4% and the viability, T/C [7] was 86.9%. The viability, T/C [8] was 78.4%, the viability, T/C [27] was 68.4% and the viability, T/C [28] was 46.9%. It also gave a viability, T/C [9] of 107%, a viability, T/C [10] of 94.4% and a viability, T/C [11] of 78.8%. It also gave a viability, T/C [12] of 78.3%, a viability, T/C [29] of 68.8% and a viability, T/C [30] of 50.5%. It also gave a viability, T/C [13] of 97.3%, a viability, T/C [14] of 97.5% and a viability, T/C [15] of 81.7%. The viability, T/C [16] was 78.9%, the viability, T/C [31] was 69.1% and the viability, T/C [32] was 48.4%. It also gave a viability, T/C [17] of 97%, a viability, T/C [18] of 90.9% and a viability, T/C [19] of 87.7%. The viability, T/C [20] was 75.8%, the viability, T/C [33] was 63.2% and the viability, T/C [34] was 47%. It also gave a viability, T/C [21] of 98.7%, a viability, T/C [22] of 84.6% and a viability, T/C [23] of 85.7%. It also gave a viability, T/C [24] of 74.5%, a viability, T/C [35] of 64.2% and a viability, T/C [36] of 42%.
Compound `Nc1ccn(C2OC(CO)C(O)C2(F)F)c(=O)n1` (stereo not drawn) + COC1C(OC(N)=O)C(O)C(Oc2ccc3c(O)c(NC(=O)c4ccc(O)c(CC=C(C)C)c4)c(=O)oc3c2C)OC1(C)C has an IC50 (second compound 0.0316 µM) greater than 10000 nM, an IC50 (second compound 0.1 µM) greater than 10000 nM and an IC50 (second compound 0.316 µM) greater than 10000 nM. For the same compound, the IC50 (second compound 1 µM) was greater than 10000 nM, the IC50 (second compound 3.16 µM) was greater than 10000 nM and the IC50 (second compound 10 µM) was greater than 10000 nM. It also gave a viability, T/C [3] of 82%, a viability, T/C [4] of 81.5% and a viability, T/C [25] of 75.1%. The viability, T/C [26] was 72.2%, the viability, T/C [37] was 63.9% and the viability, T/C [38] was 55.2%. For the same compound, the viability, T/C [7] was 91.1%, the viability, T/C [8] was 82.6% and the viability, T/C [27] was 73.1%. The viability, T/C [28] was 70%, the viability, T/C [39] was 68.3% and the viability, T/C [40] was 50.5%. For the same compound, the viability, T/C [11] was 96.2%, the viability, T/C [12] was 78.5% and the viability, T/C [29] was 76.6%. It also gave a viability, T/C [30] of 70.2%, a viability, T/C [41] of 63.5% and a viability, T/C [42] of 47.6%. It also gave a viability, T/C [15] of 92%, a viability, T/C [16] of 84% and a viability, T/C [31] of 71.8%. The viability, T/C [32] was 70%, the viability, T/C [43] was 62.5% and the viability, T/C [44] was 48.6%. The viability, T/C [19] was 89.2%, the viability, T/C [20] was 81.9% and the viability, T/C [33] was 72.5%. For the same compound, the viability, T/C [34] was 67%, the viability, T/C [45] was 63.2% and the viability, T/C [46] was 52.1%. The viability, T/C [23] was 93.1%, the viability, T/C [24] was 82.3% and the viability, T/C [35] was 75.3%. It also gave a viability, T/C [36] of 73.1%, a viability, T/C [47] of 66.4% and a viability, T/C [48] of 52.1%.
In the case of `O=c1[nH]cc(F)c(=O)[nH]1` + COC1C(OC(N)=O)C(O)C(Oc2ccc3c(O)c(NC(=O)c4ccc(O)c(CC=C(C)C)c4)c(=O)oc3c2C)OC1(C)C, the IC50 (second compound 0.0316 µM) is reported as greater than 10000 nM, the IC50 (second compound 0.1 µM) is reported as greater than 10000 nM and the IC50 (second compound 0.316 µM) is reported as greater than 10000 nM. It also gave an IC50 (second compound 1 µM) greater than 10000 nM, an IC50 (second compound 3.16 µM) greater than 10000 nM and an IC50 (second compound 10 µM) greater than 10000 nM. It also gave a viability, T/C [3] of 95.8%, a viability, T/C [4] of 101% and a viability, T/C [25] of 111%. It also gave a viability, T/C [26] of 103%, a viability, T/C [37] of 103% and a viability, T/C [38] of 107%. It also gave a viability, T/C [7] of 106%, a viability, T/C [8] of 107% and a viability, T/C [27] of 108%. The viability, T/C [28] was 106%, the viability, T/C [39] was 112% and the viability, T/C [40] was 97.2%. For the same compound, the viability, T/C [11] was 114%, the viability, T/C [12] was 106% and the viability, T/C [29] was 112%. For the same compound, the viability, T/C [30] was 99.5%, the viability, T/C [41] was 109% and the viability, T/C [42] was 96.4%. It also gave a viability, T/C [15] of 104%, a viability, T/C [16] of 101% and a viability, T/C [31] of 108%. For the same compound, the viability, T/C [32] was 101%, the viability, T/C [43] was 97.6% and the viability, T/C [44] was 96.8%. It also gave a viability, T/C [19] of 109%, a viability, T/C [20] of 97.7% and a viability, T/C [33] of 99.2%. The viability, T/C [34] was 105%, the viability, T/C [45] was 106% and the viability, T/C [46] was 97.9%. For the same compound, the viability, T/C [23] was 99.6%, the viability, T/C [24] was 97.1% and the viability, T/C [35] was 105%. For the same compound, the viability, T/C [36] was 101%, the viability, T/C [47] was 98.3% and the viability, T/C [48] was 101%.
